The results in this text go back to PubChem BioAssay (NCI).

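In this assay, cells in 96-well plates receive the compound at five concentrations for 48 hours. Endpoints are linearly interpolated between the surrounding concentrations. GI50: concentration for 50% inhibition of growth. The concentration for full growth arrest is given as TGI.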

Test systems include 786-0 renal; ACHN renal; KM12 colon; MCF7 breast; MDA-MB-435; NCI-H23 lung; SF-295 CNS; SNB-75 CNS; SR leukemia; HOP-62 NSCLC.
Holding throughout (experiment): NCI-60 cell line screen, 48 h

As to `CN(C(=O)C(C)(C)C)c1ccccc1I(=O)=O`, the GI50 with 786-0 renal, with ACHN renal, in the assay on KM12 colon, with MCF7 breast, in the assay with MDA-MB-435 and with NCI-H23 lung was over 100 µM throughout. Further, the GI50 in the assay with SF-295 CNS is over 100 µM; in the assay with SNB-75 CNS it was over 100 µM; in the assay with SR leukemia, 3.15 µM. Moreover, the TGI with 786-0 renal, in the assay with ACHN renal, with KM12 colon, with MCF7 breast, in the assay on MDA-MB-435 and with NCI-H23 lung was over 100 µM each time. The TGI with SF-295 CNS was over 100 µM; in the assay with SNB-75 CNS, over 100 µM; with SR leukemia, 26.4 µM.
For `CSc1ccc(N2C(=O)C3c4[nH]c5ccccc5c4C4CCC(C(C)(C)C)CC4C3C2=O)cc1` (centres undefined), the TGI is 29.1 µM with 786-0 renal; 29.1 µM in the assay with ACHN renal; 28.6 µM in the assay on HOP-62 NSCLC; over 100 µM with KM12 colon; 31.9 µM in the assay on NCI-H23 lung; 33.4 µM in the assay on SF-295 CNS. Besides, the TGI in the assay with SNB-75 CNS was 39.2 µM; in the assay on SR leukemia, 23.2 µM.
On to `O=C(Nc1ccc(Br)cc1)C(=O)C(C(=O)c1ccc(Cl)c(Cl)c1)C1OC(=O)c2ccccc21` (centres undefined), for which the TGI in the assay with 786-0 renal was determined as 30.9 µM; in the assay with ACHN renal, 35.5 µM; in the assay on HOP-62 NSCLC it was 32.5 µM; in the assay on KM12 colon, 31.8 µM; in the assay with NCI-H23 lung, 29.3 µM; in the assay on SF-295 CNS it was 65.3 µM. Also, the TGI is 65.9 µM in the assay on SNB-75 CNS and over 100 µM with SR leukemia.
In the case of `C=CCC1(CN(C)C)CC/C(=C\c2ccc3c(c2)OCO3)C1=O` (centres undefined), the TGI with 786-0 renal, with ACHN renal, in the assay with HOP-62 NSCLC, in the assay on KM12 colon, in the assay on NCI-H23 lung and in the assay with SF-295 CNS was over 100 µM each time. Besides, the TGI with SNB-75 CNS and with SR leukemia was over 100 µM throughout.
As to `O=C(Nc1ccc(Cl)c(Cl)c1)c1ccc(NC2=C(Cl)C(=O)N(Cc3ccccc3)C2=O)cc1`, the GI50 is 7.74 µM in the assay with 786-0 renal; 17.4 µM in the assay on HOP-62 NSCLC; 11.5 µM in the assay on KM12 colon; 2.1 µM in the assay with MCF7 breast; 5.62 µM in the assay with MDA-MB-435; 14.2 µM in the assay with NCI-H23 lung. For the same molecule, the GI50 in the assay with SF-295 CNS was 13.6 µM; in the assay on SNB-75 CNS, 16.1 µM; in the assay with SR leukemia, 2.23 µM. Further, the TGI is 20.1 µM in the assay with 786-0 renal; 31.3 µM in the assay on HOP-62 NSCLC; 27.2 µM in the assay with KM12 colon; 4.82 µM in the assay with MCF7 breast; 19.5 µM in the assay on MDA-MB-435; 27.4 µM in the assay with NCI-H23 lung. The TGI with SF-295 CNS amounted to 34.7 µM; in the assay with SNB-75 CNS, 56.4 µM; in the assay on SR leukemia, 5.27 µM.
Take `CCN1CCN(c2ccc(NC(=O)Nc3nc4ccc(-c5ccccc5OC)cc4s3)cc2)CC1`: the GI50 with 786-0 renal was 1.8 µM; in the assay on ACHN renal, 1.74 µM; with KM12 colon, 1.75 µM; in the assay on MCF7 breast, 1.31 µM; in the assay with MDA-MB-435, 1.71 µM; in the assay with NCI-H23 lung, 1.67 µM. For the same molecule, the GI50 in the assay on SF-295 CNS was 1.68 µM; in the assay on SNB-75 CNS it was 1.49 µM; in the assay on SR leukemia it was 1.65 µM. For the same molecule, the TGI with 786-0 renal is 3.28 µM; with ACHN renal, 3.11 µM; with KM12 colon, 3.33 µM; in the assay with MCF7 breast, 2.86 µM; with MDA-MB-435, 3.14 µM; in the assay on NCI-H23 lung, 3.65 µM. Further, the TGI in the assay with SF-295 CNS came to 3.09 µM; in the assay on SNB-75 CNS, 2.86 µM; in the assay on SR leukemia, 4.31 µM.
For the molecule `C=CC1=C(C)C(/C=c2\[nH]/c(=C/c3[nH]c(CC4NC(=O)C(C)/C4=C\C)c(C)c3CCC(=O)O)c(CC(=O)O)c2C)=NC1=O` (centres undefined), the TGI with 786-0 renal, in the assay with ACHN renal, in the assay on HOP-62 NSCLC, in the assay on KM12 colon, in the assay on NCI-H23 lung and in the assay with SF-295 CNS was over 100 µM throughout. For the same molecule, the TGI with SNB-75 CNS and in the assay on SR leukemia was over 100 µM each time.
Turning to `CCC(O)CCCCCCCCCCCCCCC(=O)O` (centres undefined), the TGI in the assay with 786-0 renal, in the assay on ACHN renal, in the assay with HOP-62 NSCLC, with KM12 colon, with NCI-H23 lung and in the assay with SF-295 CNS was over 100 µM throughout. Further, the TGI in the assay with SNB-75 CNS and in the assay on SR leukemia was over 100 µM throughout.
As for `O=C(Nc1ccc(Br)c2ccccc12)c1ccc2ccccc2c1O`, the TGI was 15.9 µM with 786-0 renal; over 100 µM in the assay with ACHN renal; 14.8 µM in the assay on HOP-62 NSCLC; 13.7 µM in the assay on KM12 colon; 25.8 µM in the assay on MCF7 breast; 10.2 µM in the assay with NCI-H23 lung. Further, the TGI was 8.65 µM in the assay on SF-295 CNS, 8.68 µM in the assay on SNB-75 CNS and over 100 µM with SR leukemia.
For the molecule `CCCCCCCCCC1CC(=O)OC2=C1C(=O)CCC2` (centres undefined), the TGI with 786-0 renal, in the assay on ACHN renal, in the assay on HOP-62 NSCLC, in the assay on KM12 colon, in the assay with NCI-H23 lung and in the assay with SF-295 CNS was over 100 µM in each case. For the same molecule, the TGI with SNB-75 CNS and with SR leukemia was over 100 µM in each case.
As to `CCCCCCC(=O)NC1=C(N2CC2)C(=O)C(NC(=O)CCCCCC)=C(N2CC2)C1=O`, the GI50 in the assay with 786-0 renal was 4.25 µM; in the assay on ACHN renal, 2.76 µM; with HOP-62 NSCLC it was 5.35 µM; in the assay with KM12 colon, 3.12 µM; with MCF7 breast it was 2.06 µM; in the assay on MDA-MB-435, 1.56 µM. The figures for the GI50 with SF-295 CNS, with SNB-75 CNS and with SR leukemia were 0.444 µM, 11.7 µM and 1.06 µM, respectively. Further, the TGI in the assay with 786-0 renal was over 100 µM; in the assay with ACHN renal, over 100 µM; in the assay on HOP-62 NSCLC it was over 100 µM; in the assay on KM12 colon, over 100 µM; in the assay on MCF7 breast, over 100 µM; in the assay on MDA-MB-435 it was 3.11 µM. Also, the TGI with SF-295 CNS was 34 µM; in the assay with SNB-75 CNS it was 43.9 µM; with SR leukemia, over 100 µM.
